Among the data in ChEMBL document CHEMBL5576135, “Discovery of Indolo[3,2-c]isoquinoline Derivatives as Novel Top1/2 Dual Inhibitors with Orally Efficacious Antitumor Activity and Low Toxicity” (J Med Chem, 2024) are IC50 values, retold here.

Common to all, as to format: functional
The subject of assay [1] is HCT-116. The experiment in a line: Antiproliferative activity against human HCT-116 cells assessed as inhibition of cell growth incubated for 96 hrs by MTT based ELISA. Conditions: HCT-116, 96 h.
The subject of assay [2] is MDA-MB-231. Kind of assay: Antiproliferative activity against human MDA-MB-231 cells assessed as inhibition of cell growth incubated for 96 hrs by MTT based ELISA. The following applies: MDA-MB-231, 96 h.
In assay [3] the test system is Huh-7. Kind of assay: Antiproliferative activity against human Huh-7 cells assessed as inhibition of cell growth incubated for 96 hrs by MTT based ELISA. The following applies: Huh-7, 96 h.
The subject of assay [4] is PC-3. The experiment in a line: Antiproliferative activity against human PC-3 cells assessed as inhibition of cell growth incubated for 96 hrs by MTT based ELISA. Conditions: PC-3, 96 h.
Assay [5] relates to NCI-H2228. The experiment in a line: Antiproliferative activity against human NCI-H2228 cells assessed as inhibition of cell growth incubated for 96 hrs by MTT based ELISA. The following applies: NCI-H2228, 96 h.
In assay [6] the test system is MCF7. Kind of assay: Antiproliferative activity against human MCF7 cells assessed as inhibition of cell growth incubated for 96 hrs by MTT based ELISA. Conditions: MCF7, 96 h.

With `COc1ccc2c(c1)c1nc(Cl)c3ccccc3c1n2CCCN(C)C`, the IC50 in assay [1] came to 0.82 µM; in assay [2] it was 1.2 µM; in assay [3] it was 1.77 µM; in assay [4], 1.22 µM; in assay [5] it was 1.28 µM; in assay [6], 1.64 µM.

Consider `COc1ccc2c(c1)c1nc(Cl)c3ccccc3c1n2CCCN1CCC[C@@H](O)C1`, for which the IC50 in assay [1], in assay [2], in assay [3], in assay [4], in assay [5] and in assay [6] was more than 10 µM in each case.

In the case of `COc1ccc2c(c1)c1nc(Cl)c3ccccc3c1n2CCCN1CCC(CO)CC1`, the 50% inhibitory concentration (IC50) in assay [1], in assay [2], in assay [3], in assay [4], in assay [5] and in assay [6] was more than 10 µM throughout.

Turning to `COc1ccc2c3nc(Cl)c4ccccc4c3n(CCCC(=O)NO)c2c1`, the concentration for half-maximal inhibition (IC50) was 2.7 µM in assay [1]; 3.06 µM in assay [2]; more than 10 µM in assay [3]; 3.7 µM in assay [4]; 4.55 µM in assay [5]; 4.6 µM in assay [6].

On to `CCOc1ccc2c(c1)c1ncc3ccccc3c1n2CCCC(=O)NO`, for which the IC50 in assay [1] was 1.38 µM; in assay [2], 0.8 µM; in assay [3] it was 3.41 µM; in assay [4] it was 1.55 µM; in assay [5], 3.06 µM; in assay [6], 0.97 µM.

`COc1ccc2c3nc(Cl)c4ccccc4c3n(CCCN(C)C)c2c1`: the IC50 in assay [1] stood at 0.96 µM; in assay [2], 1.36 µM; in assay [3], 2.49 µM; in assay [4] it was 1.65 µM; in assay [5] it was 1.5 µM; in assay [6], 1.83 µM.

In the case of `O=C(CCCn1c2ccccc2c2nc(Cl)c3ccccc3c21)NO`, the IC50 in assay [1] was 2.87 µM; in assay [2], 2.98 µM; in assay [3], 5.76 µM; in assay [4], 3.14 µM; in assay [5] it was 4.28 µM; in assay [6] it was 3.87 µM.
